The text below walks through data of patent US20040081688A1, “Amphiphilic lipid nanoparticles for peptide and/or protein incorporation” (priority 2000, published 2004).

Data set [1] in a line: Partition coefficient octanol/water. The format is physicochemical. To be noted: 24 hours at room temperature, ratio of drug concentration in organic and water phase by RP-HPLC. The method, then: Partition coefficient: it was determined using octanol as organic phase and water as hydrophilic phase. The two phases were first saturated with each other for 24 hours at room temperature. Antide was then dissolved in the water phase at a concentration well below saturation. An equal volume of organic phase was subsequently added to the water phase and the mixture was kept under stirring for 24 hours at room temperature. Antide concentration in the two phases was determined by RP-HPLC and the partition coefficient was obtained from the ratio between the drug concentration in organic and water phase.
The resulting octanol/water coefficient was 8.56·10^−2

The nature of data set [2]: Antide semi-quantitative solubility evaluation (maximum loading) in lipids. Particulars: Antide maximum loading in the lipid named in the row. Type of data set: physicochemical.

In the case of “N-Ac-D-2-Nal, D-pClPhe, D-3-Pal, Ser, NicLys, D-NicLys, Leu, Ilys, Pro, D-Ala, NH2 [Antide]”, the octanol/water coefficient in data set [1] was 8.56·10^−2.
Consider `CCCCCCCCCCCCCCCCO` [Cetil alcohol], for which, in data set [2], the “Antide loading (%)” value is recorded as 3.7 × 10^−2 - not soluble %.
